Measurements reported in patent publication US8129380B2, “Phthalazinone derivatives” (AstraZeneca AB, priority 2008, dated 2012).

How the values were obtained:
HeLa cells = assay: Potentiation Factor (PF50): MMS growth inhibition, SRB assay; assay type: cell-based; conditions: MMS 0-10 μg/ml, ratio IC50 control / IC50 + inhibitor; for PF50 (30 nM): PARP inhibitor at 30 nM; for PF50 (200 nM): PARP inhibitor at 200 nM
Experimental: The Potentiation Factor (PF50) for compounds is calculated as a ratio of the IC50 of control cell growth divided by the IC50 of cell growth+PARP inhibitor. Growth inhibition curves for both control and compound treated cells are in the presence of the alkylating agent methyl methanesulfonate (MMS). The test compounds were used at a fixed concentration of 0.2 micromolar. The concentrations of MMS were over a range from 0 to 10 μg/ml.
2,000 HeLa cells were seeded into each well of a flat-bottomed 96-well microtiter plate in a volume of 100 μl and incubated for 6 hours at 37° C. Cells were either replaced with media alone or with media containing PARP inhibitor at a final concentration of 30 nM or 200 nM. […] Cells treated with PARP inhibitor alone were used to assess the growth inhibition by the PARP inhibitor.
Cells were left for a further 16 hours before replacing the media and allowing the cells to grow for a further 72 hours at 37° C. The media was then removed and the cells fixed with 100 μl of ice cold 10% (w/v) trichloroacetic acid. The plates were incubated at 4° C. for 20 minutes and then washed four times with water. Each well of cells was then stained with 100 μl of 0.4% (w/v) SRB in 1% acetic acid for 20 minutes before washing four times with 1% acetic acid. Plates were then dried for 2 hours at room temperature. The dye from the stained cells was solubilized by the addition of 100 μl of 10 mM Tris Base into each well.

[1] = target: T1, P-glycoprotein (KBA1 cells) (Homo sapiens, UniProt P08183); assay: P-gp substrate activity, Dose Modification Ratio with/without Verapamil, SRB assay; assay type: in vitro ADME; conditions: IC50 without Verapamil / IC50 with 20 μM Verapamil, 5 days
T1 construct: Cells from the Hela cell line known as KBA1, which expressed high P-glycoprotein; endogenous in cells; host or cells: KBA1 (HeLa-derived) cells; matched non-P-gp line KB31
T1 sequence (P08183 whole entry): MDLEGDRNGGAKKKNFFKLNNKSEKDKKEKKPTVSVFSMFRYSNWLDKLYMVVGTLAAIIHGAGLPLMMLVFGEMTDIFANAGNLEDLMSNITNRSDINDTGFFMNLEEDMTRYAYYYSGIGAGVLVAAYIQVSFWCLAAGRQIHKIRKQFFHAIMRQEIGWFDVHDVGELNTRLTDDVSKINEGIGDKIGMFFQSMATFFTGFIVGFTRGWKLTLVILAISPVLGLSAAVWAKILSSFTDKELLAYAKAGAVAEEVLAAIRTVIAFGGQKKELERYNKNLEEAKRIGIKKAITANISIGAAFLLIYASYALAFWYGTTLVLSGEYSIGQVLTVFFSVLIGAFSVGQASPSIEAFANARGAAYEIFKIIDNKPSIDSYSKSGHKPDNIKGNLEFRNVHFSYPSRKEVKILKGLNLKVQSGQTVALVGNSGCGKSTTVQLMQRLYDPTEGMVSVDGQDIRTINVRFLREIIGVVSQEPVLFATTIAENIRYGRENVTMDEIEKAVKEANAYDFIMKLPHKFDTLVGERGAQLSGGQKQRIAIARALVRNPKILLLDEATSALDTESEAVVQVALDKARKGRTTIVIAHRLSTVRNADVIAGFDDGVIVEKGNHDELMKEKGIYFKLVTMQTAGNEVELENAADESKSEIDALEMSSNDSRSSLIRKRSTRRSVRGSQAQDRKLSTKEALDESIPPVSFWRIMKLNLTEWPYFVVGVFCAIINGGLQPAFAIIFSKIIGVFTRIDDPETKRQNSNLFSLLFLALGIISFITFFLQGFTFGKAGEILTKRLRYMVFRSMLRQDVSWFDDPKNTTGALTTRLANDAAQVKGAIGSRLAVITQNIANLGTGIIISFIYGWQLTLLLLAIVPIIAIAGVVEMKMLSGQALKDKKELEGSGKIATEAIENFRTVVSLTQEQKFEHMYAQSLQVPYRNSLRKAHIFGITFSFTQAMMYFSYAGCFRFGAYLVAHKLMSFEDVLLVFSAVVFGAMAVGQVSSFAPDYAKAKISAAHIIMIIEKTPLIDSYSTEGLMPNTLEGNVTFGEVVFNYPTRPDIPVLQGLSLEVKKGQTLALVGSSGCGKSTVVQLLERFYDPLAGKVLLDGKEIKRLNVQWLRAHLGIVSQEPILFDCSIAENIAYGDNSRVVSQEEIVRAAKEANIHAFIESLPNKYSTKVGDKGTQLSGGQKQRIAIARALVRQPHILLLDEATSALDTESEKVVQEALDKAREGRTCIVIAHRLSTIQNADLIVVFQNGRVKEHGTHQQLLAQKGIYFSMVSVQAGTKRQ
Experimental: Cells from the Hela cell line known as KBA1, which expressed high P-glycoprotein (ABC1a and ABC1b transporter glycoproteins also known as MDR1a and MDR1b) and the matched non-P-glycoprotein expressing line known as KB31, were seeded onto 96 well tissue culture plates with 80 μl per well of 1.00×10^4 cells/ml=800 cells/well [DMEM, 10% FBS, PSG] and left to adhere for 4 hours. After the incubation period 10 μl per well of 200 μM Verapamil (giving a final conc. of 20 μM) a known inhibitor of P-gp or vehicle media were added to various wells of the cell plates. The 96 well plates were left in the incubator for 1 hour prior to 10 μl of test compound (or the known substrate Etoposide as a reference control) or 10 μl PBS/1% DMSO vehicle (control wells) being added into either Verapamil containing or media control wells. […]
The cell plates were then incubated for 5 days prior to cell growth being assessed using the Sulforhodamine B (SRB) assay as described previously. The P-gp substrate activity for each compound was calculated using the cell growth activity of the tests compounds on the KBA1 cells in the presence or absence (control wells) of Verapamil. The Dose Modification Ratio (DMR) is calculated from the KBA1 where for each test compound a ratio of the IC50 of the compound in the absence of Verapamil is divided by the IC50 of cell growth in the presence of Verapamil. […]

[2] = Solubility in 0.1 M phosphate buffer; assay type: physicochemical; conditions: pH 7.4, 24 hours, 25° C.
Experimental: The solubility of the test compounds was measured following a method described in Leach, A., et al., J Med Chem (2006), 49(23), 6672-6682:
Solubility values are determined from agitation of compounds in 0.1 M phosphate buffer at pH 7.4 for 24 hours at 25° C. The supernatant is separated from undissolved material by double centrifugation and subsequently analysed and quantified against a standard of known concentration in DMSO using generic HPLC-UV methodology coupled with mass spectral peak identification.

Row | Compound | PF50 (30 nM) (HeLa cells) | PF50 (200 nM) (HeLa cells) | Dose Modification Ratio (DMR) [1] | solubility [2]
1 | COC1CCN(C(=O)c2cc(Cc3n[nH]c(=O)c4ccccc34)ccc2F)CC1 [Compound 2b, 4-(4-fluoro-3-(4-methoxypiperidine-1-carbonyl)benzyl)phthalazin-1(2H)-one] | 3.0 | 15 | 1.3 | 1070 µmol
2 | CCOC1CCN(C(=O)c2cc(Cc3n[nH]c(=O)c4ccccc34)ccc2F)CC1 [Compound 2f, 4-(3-(4-ethoxypiperidine-1-carbonyl)-4-fluorobenzyl)phthalazin-1(2H)-one] | 14.1 | 25 | 1.0 | 211 µmol
3 | CCOC1CCN(C(=O)c2cc(Cc3n[nH]c(=O)c4cccc(OC)c34)ccc2F)CC1 [Compound 126b, 4-(3-(4-ethoxypiperidine-1-carbonyl)-4-fluorobenzyl)-5-methoxyphthalazin-1(2H)-one] | 7.4 | – | – | –
4 | CCOC1CCN(C(=O)c2cc(F)cc(Cc3n[nH]c(=O)c4cccc(Cl)c34)c2)CC1 [Compound 129a, 5-chloro-4-(3-(4-ethoxypiperidine-1-carbonyl)-5-fluorobenzyl)phthalazin-1(2H)-one] | 1.0 | – | – | –
